Tests used:
[1] = target: T1, Xenopus laevis Aurora B/INCENP complex (Xenopus laevis, UniProt Q6DE08); assay: Aurora-B kinase assay (radioactive enzyme inhibition); format: biochemical
T1 construct: equipped at the N-terminal position with a GST tag (amino acids 60-361); GST (N, cleaved yes); made in house; host or cells: E. coli BL21 (DE3)
Excerpt: A radioactive enzyme inhibition assay was developed using E. coli-expressed recombinant Xenopus laevis Aurora B wild-type protein equipped at the N-terminal position with a GST tag (amino acids 60-361) in a complex with Xenopus laevis INCENP (amino acids 790-847), which is obtained from bacteria and purified. In equivalent manner a Xenopus laevis Aurora B mutant (G96V) in a complex with Xenopus laevis INCENP^790-847 may also be used.
The coding sequence for Aurora-B^60-361 from Xenopus laevis is cloned into a modified version of pGEX-6T (Amersham Biotech) via BamHI and SalI cutting sites. The vector contains two cloning cassettes which are separated by a ribosomal binding site, allowing bi-cistronic expression. In this configuration Xenopus laevis Aurora B is expressed by the first cassette, and the Xenopus laevis INCENP^790-847 is expressed by the second cassette. The resulting vector is pAUB-IN^847.
First of all the E. coli strain BL21 (DE3) is co-transformed with pUBS520 helper plasmid and pAUB-IN^847, after which protein expression is induced using 0.3 mM IPTG at an OD600 of 0.45-0.7. The expression is then continued for approx. 12-16 h at 23-25° C. with agitation.
The bacteria are then removed by centrifuging and the pellet is lysed in lysis buffer (50 mM Tris/Cl pH 7.6, 300 mM NaCl, 1 mM DTT, 1 mM EDTA, 5% glycerol, Roche Complete Protease Inhibitor tablets) using ultrasound, using 20-30 mL lysis buffer per litre of E. coli culture. The lysed material is freed from debris by centrifugation (12000 rpm, 45-60 min, JA20 rotor). The supernatant is incubated with […] of equilibrated GST Sepharose Fast Flow (Amersham Biosciences) per litre of E. coli culture for 4-5 h at 4° C. Then the column material is washed with 30 volumes of lysis buffer and then equilibrated with 30 volumes of cleavage buffer (50 mM Tris/Cl pH 7.6, 150 mM NaCl, 1 mM DTT, 1 mM EDTA). To cleave the GST tag from Aurora B, 10 units of Prescission Protease (Amersham Biosciences) are used per milligram of substrate and the mixture is incubated for 16 h at 4° C. The supernatant which contains the cleavage product is loaded onto a 6 mL Resource Q column (Amersham Biosciences) equilibrated with ion exchange buffer (50 mM Tris/Cl pH 7.6, 150 mM NaCl, 1 mM DTT, 1 mM EDTA). The Aurora B/INCENP complex is caught as it flows through, then concentrated and loaded onto a Superdex 200 size exclusion chromatography (SEC) column equilibrated with SEC buffer (10 mM Tris/Cl pH 7.6, 150 mM NaCl, 1 mM DTT, 1 mM EDTA). Fractions which contain the AuroraB/INCENP complex are collected and concentrated using Vivaspin concentrators (molecular weight exclusion 3000-5000 Da) to a final concentration of 12 mg/mL. Aliquots (e.g. 240 ng/μL) for kinase assays are transferred from this stock solution into freezing buffer (50 mM Tris/Cl pH 8.0, 150 mM NaCl, 0.1 mM EDTA, 0.03% Brij-35, 10% glycerol, 1 mM DTT) and stored at −80° C.
Test substances are placed in a polypropylene dish (96 wells, Greiner #655 201), in order to cover a concentration frame of 10 μM-0.0001 μM. The final concentration of DMSO in the assay is 5%. 30 μL of protein mix (50 mM Tris/Cl pH 7.5, 25 mM MgCl2, 25 mM NaCl, 167 μM ATP, 10 ng Xenopus laevis Aurora B/INCENP complex in freezing buffer) are pipetted into the 10 μl of test substance provided in 25% DMSO and this is incubated for 15 min at RT. Then 10 μL of peptide mix (100 mM Tris/Cl pH 7.5, 50 mM MgCl2, 50 mM NaCl, 5 μM NaF, 5 μM DTT, 1 μCi gamma-P33-ATP [Amersham], 50 μM substrate peptide [biotin-EPLERRLSLVPDS or multimers thereof, or biotin-EPLERRLSLVPKM or multimers thereof, or biotin-[…]]) are added. The reaction is incubated for 75 min (ambient temperature) and stopped by the addition of 180 μL of 6.4% trichloroacetic acid and incubated for 20 min on ice. […]

PTK2 enzyme = target: T2, PTK2 enzyme (Homo sapiens, UniProt Q05397); assay: PTK2 enzyme test, Assay 2 (DELFIA, poly-Glu-Tyr substrate, antibody PT66); format: biochemical; settings: Assay 2 (values marked *); 1 h pre-incubation, 0.5% DMSO
T2 construct: purchased Invitrogen PV3832
Excerpt: This test uses active PTK2 enzyme (Invitrogen Code PV3832) and poly-Glu-Tyr (4:1, Sigma P-0275) as the kinase substrate. The kinase activity is detected by means of the phosphorylation of the substrate in a DELFIA™ assay. The phosphorylated substrate is detected with the europium-labelled phosphotyrosine antibody PT66 (Perkin Elmer, No.: AD0040).
In order to determine concentration-activity curves with PTK2-inhibitors the compounds are serially diluted first of all in 10% DMSO/H2O and then in kinase dilution buffer (20 mM TRIS/HCl pH 7.5, 0.1 mM EDTA, 0.1 mM EGTA, 0.286 mM sodium orthovanadate, 10% glycerol with the addition of freshly prepared BSA (fraction V, 1 mg/mL) and DTT (1 mM)) and 10 μL of each dilution are dispensed per well in a 96-well microtitre plate (clear U-shaped base plate, Greiner No. 650101) (the inhibitors are tested in duplicates) and mixed with 10 μL/well of PTK2 kinase (0.01 μg/well). PTK2 kinase is diluted accordingly beforehand with kinase dilution buffer. The diluted PTK2 inhibitor and the PTK2 kinase are pre-incubated for 1 h at RT and shaken at 500 revolutions per min. Then 10 μL/well poly-Glu-Tyr substrate (25 μg/well poly-Glu-Tyr, 0.05 μg/well biotinylated poly-Glu-Tyr dissolved in 250 mM TRIS/HCl pH 7.5, 9 mM DTT) are added. The reaction is started by the addition of 20 μL of ATP Mix (30 mM TRIS/HCl pH 7.5, 0.02% Brij, 0.2 mM sodium orthovanadate, 10 mM magnesium acetate, 0.1 mM EGTA, 1× phosphatase inhibitor cocktail 1 (Sigma, No.: P2850), 50 μM ATP (Sigma, No.: A3377; 15 mM stock solution))—the final concentration of DMSO is 0.5%. After 1 h kinase reaction (the plates are shaken at 500 rpm), the reaction is stopped by the addition of 12 μL/well of 100 mM EDTA, pH 8, and shaken for a further 5 min at RT (500 U/min). 55 μL of the reaction mixture are transferred into a streptavidin plate (Strepta Well High Bind (transparent, 96-well) made by Roche, No.: 11989685001) and incubated for 1 h at RT (shaking at 500 rpm). Then the microtitre plate is washed five times with 200 μL/well D-PBS (Invitrogen, No. 14190). 100 μL of a solution containing DELFIA Eu-N1 Anti-Phosphotyrosine PT66 antibody (Perkin Elmer, No.: AD0040, diluted 1:9000 in DELFIA test buffer (Perkin Elmer, No.: 1244-111)) is then added and it is incubated for 1 h at RT (shaking at 500 rpm). Then the plate is washed five times with 200 μL/well DELFIA washing buffer (Perkin Elmer, No.: 1244-114), 200 μL/well strengthening solution (Perkin Elmer, No.: 1244-105) is added and the whole is incubated for 10 min at RT (shaking at 300 rpm).
The time-delayed europium fluorescence is then measured in a microtitre plate reader (Victor, Perkin Elmer). The positive control consists of wells that contain solvent (0.5% DMSO in test buffer) and display uninhibited kinase activity. Wells that contain test buffer instead of enzyme act as a control for the background kinase activity.
The IC50 values are determined from concentration-activity analyses by iterative calculation using a sigmoid curve analysis algorithm (FIFTY, based on Graph PAD Prism Version 3.03) with a variable Hill coefficient.

T2 sequence (Q05397 whole entry): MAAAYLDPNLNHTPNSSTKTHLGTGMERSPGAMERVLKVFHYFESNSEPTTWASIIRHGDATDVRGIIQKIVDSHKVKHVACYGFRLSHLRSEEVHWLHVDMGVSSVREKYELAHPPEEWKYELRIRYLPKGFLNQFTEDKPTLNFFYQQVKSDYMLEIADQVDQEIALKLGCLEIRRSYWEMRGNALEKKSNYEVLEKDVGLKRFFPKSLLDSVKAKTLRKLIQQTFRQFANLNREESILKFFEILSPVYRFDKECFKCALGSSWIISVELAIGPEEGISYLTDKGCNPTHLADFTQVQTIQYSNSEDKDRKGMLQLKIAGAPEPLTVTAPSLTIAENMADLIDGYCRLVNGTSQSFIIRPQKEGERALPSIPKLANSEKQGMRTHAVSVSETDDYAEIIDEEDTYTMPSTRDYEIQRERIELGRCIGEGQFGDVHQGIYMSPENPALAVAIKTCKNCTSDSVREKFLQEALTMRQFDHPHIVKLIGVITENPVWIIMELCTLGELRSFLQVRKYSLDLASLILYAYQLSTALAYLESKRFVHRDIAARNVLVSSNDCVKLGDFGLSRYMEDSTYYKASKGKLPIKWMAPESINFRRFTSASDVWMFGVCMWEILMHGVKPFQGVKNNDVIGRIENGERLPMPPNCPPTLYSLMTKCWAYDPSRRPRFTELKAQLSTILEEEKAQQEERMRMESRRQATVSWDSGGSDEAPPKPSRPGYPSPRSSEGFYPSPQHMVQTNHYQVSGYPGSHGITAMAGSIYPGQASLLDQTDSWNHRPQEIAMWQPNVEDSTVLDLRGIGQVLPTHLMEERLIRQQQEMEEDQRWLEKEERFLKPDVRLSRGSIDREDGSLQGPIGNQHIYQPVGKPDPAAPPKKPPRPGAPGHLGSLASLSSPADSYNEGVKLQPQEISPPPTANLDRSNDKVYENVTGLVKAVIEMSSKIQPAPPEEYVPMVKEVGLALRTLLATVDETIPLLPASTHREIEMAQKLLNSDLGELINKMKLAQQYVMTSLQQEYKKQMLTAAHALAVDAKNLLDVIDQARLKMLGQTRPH
T1 sequence (Q6DE08 60-361): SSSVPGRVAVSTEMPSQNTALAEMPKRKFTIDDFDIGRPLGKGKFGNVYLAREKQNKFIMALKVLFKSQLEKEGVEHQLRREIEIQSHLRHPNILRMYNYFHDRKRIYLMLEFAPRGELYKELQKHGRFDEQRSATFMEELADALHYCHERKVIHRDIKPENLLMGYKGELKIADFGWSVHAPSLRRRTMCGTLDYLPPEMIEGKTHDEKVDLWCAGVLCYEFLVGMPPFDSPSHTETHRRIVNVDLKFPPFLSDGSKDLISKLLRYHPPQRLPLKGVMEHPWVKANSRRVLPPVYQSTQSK
T1 sequence (O13024 790-847 partner): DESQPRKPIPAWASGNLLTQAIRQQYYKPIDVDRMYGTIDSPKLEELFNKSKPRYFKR

Row | IC50 [1] | IC50 (PTK2 enzyme) | SMILES
1 | > 10000 nM | 1 nM | COc1cc(N2CCN(C(C)(C)C)CC2)c(C)cc1Nc1ncc(C(F)(F)F)c(N[C@@H]2CCCC[C@H]2N(C)S(C)(=O)=O)n1 [Example I-158]
2 | 1140 nM | 0.49 nM | COCCN1CCC(NC(=O)c2cc(OC)c(Nc3ncc(Cl)c(N[C@@H]4CCC[C@H]4N(C)S(C)(=O)=O)n3)cc2Cl)CC1 [Example I-166]
3 | 641 nM | 0.32 nM | COc1cc(C(=O)NC2CCOCC2)c(C)cc1Nc1ncc(C(F)(F)F)c(N[C@@H]2CCC[C@H]2NS(C)(=O)=O)n1 [Example I-195]

— patent US20110071158A1, “NEW COMPOUNDS” (BOEHRINGER INGELHEIM INTERNATIONAL GMBH, priority 2009, published 2011)
